As a reminder, the melting point is the temperature of the solid-liquid transition.

Bounds are passed on as bounds.

`O=C(Nc1nc(=O)c2cnn3c2n1CC=C3c1cccc(C(F)(F)F)c1)C(F)(F)F`: the melting point fell in the range of 184 to 185 °C.

The molecule `Cc1cc(C#N)cc(CC#N)c1` had a melting point of 63 to 64 °C.

Consider `CC1=NN(c2ccc3c(=O)n(CC(C)C)c(CN)c(-c4ccccc4)c3c2)CO1`, for which the melting point was 179 to 181 °C.

`Cc1cc(-c2cc(C(F)F)n3ncc(C(=O)Nc4cccc(S(C)(=O)=O)c4)c3n2)ccc1Cl`: the melting point came to 270 °C.

`CCOC(=O)C1=C(C)NC(=S)N(C(=O)OC(C)C)C1c1cccc(Cl)c1Cl` (centres undefined): the melting point lay within 157 to 159 °C.

Turning to `COc1cc2ncc(C#N)c(Nc3ccc(F)c(Cl)c3)c2cc1NC(=O)C=CCN(C)CCO`, the melting point was in the range of 210 to 214 °C.

`CC(C)(C)OC(=O)n1c([Si](C)(C)C)cc2cnccc21` came in with a melting point of 112 °C.

`CCCCCCCCCCCCCOc1ccc(C(C)=O)o1`: the melting point lay within 61 to 62 °C.

Molecule `CCOC(=O)N1CCN(C(=O)Cn2c(-c3ccc(Cl)cc3)nc3cccnc32)CC1` came in with a melting point of 184 to 186 °C.

`c1ccc(CCN2CCc3[nH]c4ccc5scc(-c6ccccc6)c5c4c3C2)cc1`: the melting point fell in the range of 220 to 221 °C.

As for `O=c1oc(-c2snnc2C2CC2)nc2ccccc12`, the melting point lay in the range of 164 to 165 °C.

`COC(=O)c1ccc2c(c1)C(=O)c1c-2n(CCCNS(=O)(=O)c2ccccc2)c(=O)c2cc(OC)c(OC)cc12` returned a melting point of 249 to 251 °C.

`CC(C)(O)[C@@H](N)c1cccc2ccccc12` had a melting point of 86 to 87 °C.

With `Cn1cnc2nc(-c3ccc(C#N)cc3)nn2c1=S`, the melting point is > 300 °C.

The molecule `N[C@@H](Cc1ccc(Cl)c(OC(F)(F)C(F)F)c1)[C@H](O)c1ccc(F)cc1` (racemic) yielded a melting point of 109 to 110 °C.

Molecule `Cc1nc2ccc(Cl)cn2c(=O)c1CCN1CCN(c2cccc(Cl)c2)CC1` returned a melting point of 152 to 154 °C.

Molecule `CSc1cc(C)nc(SC)c1NC(=O)CCCCSc1nc2ccccc2s1` displayed a melting point of 121 to 123 °C.

In the case of `Clc1ccc(CSCc2ccc(Cl)cc2)cc1`, the melting point lay within 42 to 44 °C.

In turn, `CN(C1CCC(O)CC1)S(=O)(=O)c1ccc(Nc2nccc(Nc3ccc(F)cc3)n2)cc1` (centres undefined) showed a melting point of 203 °C.

Molecule `O=C(Nc1ccc2nc(CN3CCCC3)ccc2c1)c1ccc(-c2ccc(Cl)cc2)cc1` registered a melting point of 200 to 202 °C.

On to `Cn1nc(-c2cc(N)c(F)cc2F)c(Cl)c1C(F)(F)F`, for which the melting point was found to be 82 °C.

As for `O=C(Cc1ccccc1Nc1c(Cl)cccc1Cl)OCCOCCOCCO[N+](=O)[O-]`, the melting point worked out at 68 °C.

The molecule `COc1ccc(S(=O)(=O)c2cc3c(cc2OC)OC(C)(C)[C@@H](O)[C@@H]3N2CCCC2=O)cc1` (relative stereo) yielded a melting point of 286 to 287 °C.

The molecule `COCC(C)Oc1cc(Oc2ccc(S(C)(=O)=O)nc2)cc2cc(C3=NCC(CC(N)=O)S3)[nH]c12` (centres undefined) returned a melting point of 131 to 132 °C.

`O=C1NC(=O)c2ccccc2/C1=C/Nc1cccc(CN2CCCCCC2)c1` came in with a melting point of 116 to 117 °C.

For the molecule `O=C(O)C(=O)CC(=O)c1cccn1Cc1cccc(F)c1F`, the melting point fell in the range of 154 to 156 °C.

Take `Cn1cnc(COc2nn3c(-c4ccccc4F)nnc3cc2C23CCC(C2)C3)n1`: the melting point was in the range of 170 to 172 °C.

In turn, `O=C(Oc1cc(F)ccc1F)c1cc2ccccc2oc1=O` gave a melting point of 134 to 137 °C.

With `COc1ccc(C(=O)CC(=O)C(F)(F)F)cc1OC`, the melting point lay within 87 to 89 °C.

With `CC(C)N(CCCC1CCN(CCNC(=O)N2c3cc(Cl)ccc3C(=O)Nc3cccnc32)CC1)C(C)C`, the melting point was 175 to 176 °C.

`CCNS(=O)(=O)c1cccc(NC(=O)c2cnn3c(C(F)F)cc(-c4ccc(C(F)(F)F)cc4)nc23)c1` gave a melting point of 259 °C.

`CC(C)Nc1nc(N2CCOCC2)nc2cscc12`: the melting point is 202 °C.

In turn, `CCc1nc(CCc2ccc(NC(=O)/C=C/c3cnn(C)c3-c3ccc(F)cc3)cc2)cs1` displayed a melting point of 190 to 191 °C.

Molecule `CC(=O)Oc1ccc(/C=C/c2cccc(OC(C)=O)c2)cc1` gave a melting point of 124 to 125 °C.

`CC(=O)NC[C@H]1CN(c2ccc(N3CCC4(CC3)CC4=S=O)c(F)c2)C(=O)O1`: the melting point was 78 to 80 °C.

`CC1(C)CC(N2CCCC2)=CC(=C(C#N)S(C)(=O)=O)C1` showed a melting point of 260 to 261 °C.

`CCCOc1ccc(CN2CCOCC2)cc1-c1nc2c(CCC)nn(C)c2c(=O)[nH]1` had a melting point of 106 to 107 °C.

`CCN(C(=O)CN1C(=O)c2ccccc2C1=O)c1ccc(C)c(CO)c1C` yielded a melting point of 205 to 207 °C.

In the case of `Nc1ncc(Sc2ccc([N+](=O)[O-])cc2)s1`, the melting point lay in the range of 162 to 164 °C.

The molecule `C=CCCCCCCCCCOc1ccc(-c2ccc(O)cc2)cc1` showed a melting point of 135 to 136 °C.

Turning to `CC(C)[C@@H](C(=O)NCCCC(c1ccc(F)cc1)c1ccc(F)cc1)N(C)C1CCCCC1`, the melting point fell in the range of 82 to 86 °C.

Turning to `Nc1nc(O)c2c(n1)NCC(CCc1nc(C(=O)N[C@@H](CCC(=O)O)C(=O)O)c[nH]1)C2` (some centres undefined), the melting point is > 260 °C.

`C=CCN(CC=C)C(=O)n1cnc(S(=O)(=O)CCCCC)n1` registered a melting point of 28 to 30 °C.

Turning to `CC(=O)NCC1CN(c2cc(F)c(N3CCN(C(=O)COC(=O)c4cccnc4)CC3)c(F)c2)C(=O)O1` (centres undefined), the melting point fell in the range of 213 to 214 °C.

On to `COc1ccc(NN=C(Sc2ccccc2)C(C)=O)cc1`, for which the melting point is 120 to 123 °C.

`NS(=O)(=O)c1ccccc1S(=O)(=O)NC1CC1`: the melting point lay in the range of 202 to 203 °C.

Take `COc1ccc(CC(=O)Nc2c(C)c(C)c3c(c2C)C(c2ccc(C(C)C)cc2)CO3)cc1` (centres undefined): the melting point fell in the range of 166 to 167 °C.

`COc1ccnc(C(=O)N[C@H]2COC(=O)[C@H](CC(=O)OC(C)(C)C)[C@@H](OC(=O)C(C)C)[C@H](C)OC2=O)c1O` registered a melting point of 192 to 194 °C.

Molecule `COc1cccc(Nn2cnc(C)c2-c2ccccc2)c1` came in with a melting point of 156 to 158 °C.

In the case of `FC(F)(F)c1cccc(C(=CC2=NCCN2)c2ccc3ccccc3n2)c1`, the melting point was found to be 76.5 °C.

As to `C=C(C)Cn1c(=O)n(C)c(=O)c2c(SCCCO)n(Cc3cccc4ccccc34)nc21`, the melting point is 138 to 139 °C.

`Cc1ccc(CN2CCC(c3cc(-c4ccc(Cl)cc4)[nH]n3)CC2)cc1`: the melting point lay within 181 to 183 °C.

The molecule `CCc1c(C)cc(C#N)c(N)c1C#N` displayed a melting point of 121 to 123 °C.

Molecule `O=C(c1ccc(F)cn1)N1CCC[C@H](c2noc(-c3ccc(F)cc3)n2)C1` came in with a melting point of 93 to 95 °C.

The molecule `Fc1ccc(C(F)(F)F)cc1-c1cccn2nc(Cl)nc12` gave a melting point of 88 to 89 °C.

Take `Cc1nn(CC(O)c2ccc(Cl)cc2)c(=O)n1-c1ccc(N2CCN(c3ccc(O)cc3)CC2)cc1` (single isomer, unassigned; (+)): the melting point stood at 249 °C.

Regarding `CC1(C)NC(SCc2ccccc2)=NC1=S`, the melting point lay within 133 to 134 °C.

`N=C(Nc1cccc(NC(=O)CNC(=O)OCc2ccccc2)c1)N1CCCC1` registered a melting point of 81 to 82 °C.

As to `OC1(C2CCN(Cc3ccccc3)CC2)c2ccsc2CCn2ccnc21` (centres undefined), the melting point stood at 189 °C.

Regarding `CCCCCCCCCCCCCCCCCCOCC(O)Cn1cc(F)c(N)nc1=O` (centres undefined), the melting point lay in the range of 118 to 119 °C.

In turn, `CC1CCC(=NNc2ccccc2)c2ncc(C(N)=O)c(=O)n21` (centres undefined) returned a melting point of 246 to 247 °C.

In the case of `Cc1cc(C(=O)NCCO)ncc1C(c1cc(F)ccc1F)S(=O)(=O)c1ccc(F)cc1` (centres undefined), the melting point lay within 153 to 154 °C.

Molecule `CCN(c1nc(C)cc(-c2ccccc2C(F)(F)F)n1)c1c(Br)cc(N(C)C)cc1OC` came in with a melting point of 157 to 158 °C.

`Cc1ccc(C(=O)NCC(O)CO)cc1-n1c(C)cc(OCc2ccccc2CNC(=O)Nc2cc(C(C)(C)C)nn2-c2ccc(O)c(Cl)c2)c(Cl)c1=O` (centres undefined) yielded a melting point of 173 to 175 °C.

`COc1cc(OC)c(/C=C/S(=O)(=O)Nc2ccc(OC)c(NC(C)=O)c2)c(OC)c1` came in with a melting point of 296 to 298 °C.

As to `Cc1cc(OC(F)(F)C(F)Cl)ccc1NC(=O)CCCC=C(F)F` (centres undefined), the melting point lay within 59 to 60 °C.

The molecule `O=C(O)c1ccc(CNc2nc(-c3cccnc3)nc3ccccc23)cc1` had a melting point of 285 to 294 °C.

Regarding `O=C(COc1ccc(CCNS(=O)(=O)c2ccc(Cl)cc2)cc1)Nc1nnn[nH]1`, the melting point lay in the range of 228 to 230 °C.

Take `COC(=O)c1ccc(C(=O)Nc2nnc(-c3cc(Cl)cc(Cl)c3O)s2)nc1`: the melting point was found to be 301 °C.

`CCC1(O)CC(=O)OCc2c1cc[nH]c2=O` (centres undefined) yielded a melting point of 118 to 119 °C.

For the molecule `Cc1ccc(-c2[nH]c(-c3ccncc3)nc2C(=O)Nc2nccs2)cc1`, the melting point is > 250 °C.

The molecule `Cn1cc(Br)cc(Nc2cc3n(n2)CCOC3)c1=O` displayed a melting point of 195 to 197 °C.

Regarding `O=C(N[C@H]1CC[C@@H](O)C1)OCc1ccccc1` (relative stereo), the melting point lay within 62 to 63 °C.

As to `ClCc1ccc(-n2c3ccccc3c3ccccc32)cc1`, the melting point was 88 to 89 °C.

As for `O=c1[nH]c2c3ccccc3ccc2n(C2CC2)c1=O`, the melting point came to 307 °C.

In the case of `CC(=O)c1cc([N+](=O)[O-])c(F)cc1Cl`, the melting point was 66 to 68 °C.

In the case of `Clc1ccc(-c2ccc(C=CC3COC4(CCCCC4)OO3)cc2)cc1` (centres undefined), the melting point is 109 to 111 °C.

Consider `CCCCNC(=O)c1ccc(-c2ccc3nnn(Cc4ccc5ncccc5c4)c3n2)cc1F`, for which the melting point fell in the range of 100 to 102 °C.

For the molecule `C=CCOCc1nc(C(C)(C)C)nn1-c1c(Cl)cc(Cl)cc1Cl`, the melting point was 34 to 37 °C.

As for `O=C1NC(=O)c2c1c(-c1ccccc1Cl)cc1c2c2cc(O)ccc2n1CC(O)CO` (centres undefined), the melting point lay in the range of 305 to 309 °C.

Molecule `O=C(O)c1cccc(-n2ncc3c2CCc2ccccc2-3)c1` returned a melting point of 273 to 275 °C.

`CN(C)C(=O)N1CCc2ccc(S(=O)(=O)NC(=O)NCC3CCCC3)cc2CC1` yielded a melting point of 165 to 166 °C.

Consider `OCCOc1ccc(-c2nc(-c3ccc(Cl)cc3)nc(-c3ccc(OCCO)cc3O)n2)c(O)c1`, for which the melting point was in the range of 149 to 150 °C.

For `CCN1C(=O)SC(=Cc2ccc([N+](=O)[O-])cc2)C1=O`, the melting point was 217 to 218 °C.

The values are drawn from a melting point compilation (Tetko et al.; mined from patent text by program, amines drawn as free bases though some values may be those of a salt).
